From patent publication US10125095B2, “Abscisic acid derivative” (NATIONAL UNIVERSITY CORPORATION SHIZUOKA UNIVERSITY, priority 2014, dated 2018) come the findings set out here.

One assay has as its target T1, recombined PYL5 (Arabidopsis thaliana, UniProt Q9FLB1).
T1 construct: 6xHis (N); made in house; host or cells: Escherichia coli BL21-codonplus(DE3)-RIPL
T1 sequence (Q9FLB1 1-203): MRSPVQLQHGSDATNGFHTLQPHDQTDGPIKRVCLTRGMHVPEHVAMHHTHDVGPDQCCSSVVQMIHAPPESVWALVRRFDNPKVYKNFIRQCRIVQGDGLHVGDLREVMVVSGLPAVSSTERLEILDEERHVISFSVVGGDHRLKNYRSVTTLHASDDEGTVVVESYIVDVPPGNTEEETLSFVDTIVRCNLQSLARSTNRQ
The assay is described as follows: Bonding affinity measurement using an isothermal titration calorimeter. Particulars: ITC, 20° C., sodium phosphate buffer. The assay is classed as binding, thale cress. The method, then: A sodium phosphate buffer solution of a recombined PYL5 was prepared in the same procedure as in Test Example 5, and put in a reaction cell of an isothermal titration calorimeter (GE Healthcare, MicroCal iTC200), and a sodium phosphate buffer solution of the compound of Example 1 was put in the syringe. Then, the calorimeter was set to 20° C. and the measurement was carded out. The same measurement as above was also carried out for the compounds of Examples 7 to 9.
For orientation: ITC needs no label: the signal is the heat of the interaction.

For assay [1], the system named is seeds of thale cress (Arabidopsis thaliana, Col-0). The assay is described as follows: Thale cress seed germination test. The assay is classed as in vivo. The protocol:
Seeds of thale cress (Arabidopsis thaliana, Col-0) were immersed in 500 μL of an aqueous solution of 70% ethanol for 30 minutes, subsequently in 500 μL of a 100% ethanol solution for 1 minute, washed five times in 1 mL of distilled water, then immersed in distilled water and, in a dark place, vernalized at 4° C. for 3 days. A solution of the sample in methanol was put in a 1.5 mL-microtube, and methanol was removed therefrom under reduced pressure. An aqueous solution of 0.5% agar (containing ½ MS medium inorganic salts) at 70° C. was added thereto and stirred, and subsequently the obtained mixture was placed in a 96-well plate to prepare the medium containing the sample. All samples were prepared so as to have a concentration of 3 μM of the compound in Examples 1 to 9 and Comparative Example 1. Further, when ABA is applied, the ABA concentration was adjusted to 0.3 μM. 20 to 30 vernalized seeds of thale cress were planted in each well and cultured at 22° C. under continuous light to monitor the number of seeds germinated over time. The germination rate was calculated by the following formula (1). Note that those cultured in medium prepared using methanol in the same manner were used as controls. […] Germination rate (%)=Number of seeds germinated/Number of seeds planted×100 (1)
The same test was carried out as in Test Example 1 with the concentrations of the compound of Example 1 for treatment varying from 0.3 μM to 30 μM.
Similarly, the same test was carried out with the concentrations of the compound of Example 2 for treatment varying from 0.3 μM to 30 μM.
The same test was carried out as in Test Example 2 with the concentrations of the compounds for treatment varying from 0.3 μM to 3 μM to compare the recovery effects on seed germination rate of the compound of Example 1 and the compound of Comparative Example 1.

Assay [2] has as its system thale cress (Arabidopsis thaliana, Col-0) seedlings. The assay is described as follows: Thale cress growth test. The note with it: 50 μM compound co-applied with 5 μM ABA, sprayed once a day; three weeks' culture. The class given is in vivo. The protocol: Seeds of thale cress (Arabidopsis thaliana, Col-0) were sequentially immersed for 1 minute respectively in 500 μL of an aqueous solution of 5% bleach+1% SDS, 500 μL of a 70% aqueous solution of ethanol and 500 μL of a 70% aqueous solution of ethanol, washed five times in 1 mL of sterilized water, and then suspended in a 0.1% aqueous solution of agar. 25 mL each of germination medium (containing ½ MS medium inorganic salts) sterilized in an autoclave was added to a sterilized plastic petri dish, in which 60 to 80 seeds suspended in the 0.1% aqueous solution of agar were planted and, in a dark place, the seeds were vernilized at 4° C. for 3 days. The seeds were cultured at 22° C. under continuous light for 10 days. 40 g […] of sterilized soil (organic culture soil:vermiculite=1:1) was added to a plastic pot (50 mm×50 mm×50 mm, 35 mm bottom surface×35 mm height). Six plastic pots thus provided were placed in a 3000 mL-tray, 300 mL (depth 10 mm) of an aqueous solution of 1000-fold diluted HYPONeX (tradename (registered trademark), product of HYPONeX JAPAN CORP., LTD.) was added thereto and five roots each of thale cress seedlings were transplanted from the plastic petri dish. The seedlings were cultured at 22° C. under conditions of 16 hour light period-8 hour dark period, and 1 mL of an aqueous solution (prepared so as the final concentration of the compound of Example 7 to be 50 μM) of 0.1% DMSO (containing the compound of Example 7)+0.1% Approach BI (tradename (registered trademark), product of Kao Corporation) was sprayed once a day. Further, 300 mL of an aqueous solution of 2000-fold diluted HYPONeX was added every week. The same treatment as above was carried out using the compound of Comparative Example 1. Note that the seedlings, to which 1 mL of an aqueous solution of 0.1% DMSO+0.1% Approach BI without containing the above compound was sprayed once a day, were used as controls. […]

The test system of assay [3] is lettuce (Lactuca saliva) seeds. The experiment in a line: Lettuce seed germination test. The class given is in vivo. The note with it: co-applied with ABA.
For assay [4], the system named is bok choy (Brassica rapa var. chinensis) seeds. The assay is described as follows: Bok choy seed germination test. The class given is in vivo. The note with it: co-applied with ABA.
Setting [5] is: 3 μM compound co-applied with 0.3 μM ABA.

Broadly, the Kd is the concentration at which binding is half-saturated. Regarding `CCCCCCSC1=C(C)[C@](O)(/C=C/C(C)=C\C(=O)O)C(C)(C)CC1=O` [Comparative Example 1, 3′-hexylsulfanyl-abscisic acid, reference compound], at recombined PYL5, the Kd was 480 ± 100 nM, the ΔG is -9.6 ± 0.1 kcal/mol, the ΔH is -9.7 ± 0.2 kcal/mol and the “−TΔS” value came out at 1.2 kcal/mol. Also, in assay [1] (setting [5]), the “Germination rate (%) 24 Hours later” value is listed as 0%, the “Germination rate (%) 36 Hours later” value stood at 28%, the “Germination rate (%) 48 Hours later” value worked out at 67% and the “Germination rate (%) 60 Hours later” value is given as 89%. In addition, in assay [1] (compound alone, 3 μM), the “Germination rate (%) 24 Hours later” value came to 0%, the “Germination rate (%) 36 Hours later” value worked out at 85%, the “Germination rate (%) 48 Hours later” value stood at 100% and the “Germination rate (%) 60 Hours later” value is given as 100%. The “Growth suppression effect of ABA on thale cress” value in assay [2] is given as “the growth suppression effect of ABA was not substantially improved”.

With `CC1=C[C@@H](OCC#Cc2cccc3ccccc23)CC(C)(C)[C@@]1(O)/C=C/C(C)=C\C(=O)O` [Example 2], in assay [1] (setting [5]), the “Germination rate (%) 24 Hours later” value is recorded as 9%, the “Germination rate (%) 36 Hours later” value was found to be 22%, the “Germination rate (%) 48 Hours later” value was found to be 53% and the “Germination rate (%) 60 Hours later” value was determined as 89%. Besides, the “Recovery of seed germination rate decreased by ABA” value in assay [1] (compound 0.3 μM to 30 μM co-applied with ABA) is “seed germination rates decreased by ABA are recovered”. Further, in assay [1] (compound alone, 3 μM), the “Germination rate (%) 24 Hours later” value is 11%, the “Germination rate (%) 36 Hours later” value came out at 27%, the “Germination rate (%) 48 Hours later” value is given as 77% and the “Germination rate (%) 60 Hours later” value is 100%. Besides, in assay [3], the “Recovery of seed germination rate decreased by ABA” value was “recovered the seed germination rates once decreased by ABA”. Moreover, the “Recovery of seed germination rate decreased by ABA” value in assay [4] is on record as “recovered the seed germination rates once decreased by ABA”.
